Experimental data from ChEMBL document CHEMBL3875147 (Eur J Med Chem, 2016).
In brackets after ≈: the same amount, converted by molar mass.

Legend:
Staphylococcus aureus [1] = test: Antibacterial activity against Staphylococcus aureus ATCC 25923 incubated for 18 to 24 hrs by micro-dilution method; type: functional
[2] = tested on: Staphylococcus epidermidis; test: Antibacterial activity against Staphylococcus epidermidis ATCC 35984 incubated for 18 to 24 hrs by micro-dilution method; type: functional; settings: RP62A
Enterococcus faecalis [3] = test: Antibacterial activity against clinical isolate of Enterococcus faecalis incubated for 18 to 24 hrs by micro-dilution method; type: functional
Escherichia coli [4] = test: Antibacterial activity against Escherichia coli ATCC 25922 incubated for 18 to 24 hrs by micro-dilution method; type: functional
Pseudomonas aeruginosa [5] = test: Antibacterial activity against Pseudomonas aeruginosa ATCC 27853 incubated for 18 to 24 hrs by micro-dilution method; type: functional
Pseudomonas aeruginosa [6] = test: Antibacterial activity against clinical isolate of Pseudomonas aeruginosa incubated for 18 to 24 hrs by micro-dilution method; type: functional
[7] = Antibacterial activity against Aeromonas hydrophila ATCC 7966 incubated for 18 to 24 hrs by micro-dilution method; type: functional, Aeromonas hydrophila subsp. hydrophila ATCC 7966
Salmonella typhi = test: Antibacterial activity against clinical isolate of Salmonella typhi incubated for 18 to 24 hrs by micro-dilution method; type: functional, Salmonella enterica subsp. enterica serovar Typhi; settings: Salmonella enterica
Salmonella typhimurium = test: Antibacterial activity against clinical isolate of Salmonella typhimurium incubated for 18 to 24 hrs by micro-dilution method; type: functional, Salmonella enterica subsp. enterica serovar Typhimurium; settings: Salmonella enterica
[8] = tested on: Sphingomonas paucimobilis; test: Antibacterial activity against Sphingomonas paucimobilis MTCC 6362 incubated for 18 to 24 hrs by micro-dilution method; type: functional
Plesiomonas shigelloides [9] = test: Antibacterial activity against Plesiomonas shigelloides ATCC 14029 incubated for 18 to 24 hrs by micro-dilution method; type: functional
[10] = Hemolytic activity in human RBC at 100 uM measured after 1 hr by UV-vis absorbance method relative to control; type: ADME, cell-based, Erythrocyte; settings: red blood cells (RBC), read-out: Activity
Enterococcus faecalis [11] = test: Potency index, ratio of MIC for ciprofloxacin to MIC for test compound for antibacterial activity against clinical isolate of Enterococcus faecalis; type: functional
Staphylococcus aureus [12] = test: Potency index, ratio of MIC for ciprofloxacin to MIC for test compound for antibacterial activity against Staphylococcus aureus ATCC 25923; type: functional
[13] = tested on: Staphylococcus epidermidis; test: Potency index, ratio of MIC for ciprofloxacin to MIC for test compound for antibacterial activity against Staphylococcus epidermidis ATCC 35984; type: functional, RP62A
Escherichia coli [14] = test: Potency index, ratio of MIC for ciprofloxacin to MIC for test compound for antibacterial activity against Escherichia coli ATCC 25922; type: functional
Plesiomonas shigelloides [15] = test: Potency index, ratio of MIC for ciprofloxacin to MIC for test compound for antibacterial activity against Plesiomonas shigelloides ATCC 14029; type: functional

For `O=C(OCc1cn(-c2ccc(F)cc2F)nn1)c1cn(C2CC2)c2cc(N3CCN(Cc4cn(-c5ccc(F)cc5F)nn4)CC3)c(F)cc2c1=O`, the MIC (Staphylococcus aureus [1]) was 4.35 µM (≈ 3.12 µg/mL), the MIC [2] was 8.71 µM (≈ 6.25 µg/mL) and the MIC (Enterococcus faecalis [3]) was 17.4 µM (≈ 12.5 µg/mL). The MIC (Escherichia coli [4]) was 8.71 µM (≈ 6.25 µg/mL), the MIC (Pseudomonas aeruginosa [5]) was 8.71 µM (≈ 6.25 µg/mL) and the MIC (Pseudomonas aeruginosa [6]) was 17.4 µM (≈ 12.5 µg/mL). It also gave an MIC [7] of 69.7 µM (≈ 50 µg/mL), an MIC (Salmonella typhi) of 4.35 µM (≈ 3.12 µg/mL) and an MIC (Salmonella typhimurium) of 34.8 µM (≈ 25 µg/mL). It also gave an MIC [8] of 34.8 µM (≈ 25 µg/mL), an MIC (Plesiomonas shigelloides [9]) of 69.7 µM (≈ 50 µg/mL) and a hemolysis at 1 h, 100 µM [10] of 9.5%.

Compound `Cc1ccc(-n2cc(COC(=O)c3cn(C4CC4)c4cc(N5CCN(Cc6cn(-c7ccc(C)cc7Cl)nn6)CC5)c(F)cc4c3=O)nn2)c(Cl)c1` has an MIC (Staphylococcus aureus [1]) of 4.21 µM (≈ 3.13 µg/mL), an MIC [2] of 8.42 µM (≈ 6.25 µg/mL) and an MIC (Enterococcus faecalis [3]) of 33.7 µM (≈ 25 µg/mL). It also gave an MIC (Escherichia coli [4]) of 67.3 µM (≈ 50 µg/mL), an MIC (Pseudomonas aeruginosa [5]) of 16.8 µM (≈ 12.5 µg/mL) and an MIC (Pseudomonas aeruginosa [6]) of 16.8 µM (≈ 12.5 µg/mL). For the same compound, the MIC [7] was 67.3 µM (≈ 50 µg/mL), the MIC (Salmonella typhi) was > 135 µM and the MIC (Salmonella typhimurium) was 67.3 µM (≈ 50 µg/mL). For the same compound, the MIC [8] was 67.3 µM (≈ 50 µg/mL), the MIC (Plesiomonas shigelloides [9]) was 33.7 µM (≈ 25 µg/mL) and the hemolysis at 1 h, 100 µM [10] was 5.85%.

In the case of `O=C(OCc1cn(-c2ccc(OC(F)(F)F)cc2)nn1)c1cn(C2CC2)c2cc(N3CCN(Cc4cn(-c5ccc(OC(F)(F)F)cc5)nn4)CC3)c(F)cc2c1=O`, the MIC (Staphylococcus aureus [1]) is reported as 3.84 µM (≈ 3.12 µg/mL), the MIC [2] is reported as 1.92 µM (≈ 1.56 µg/mL) and the MIC (Enterococcus faecalis [3]) is reported as 0.96 µM (≈ 0.781 µg/mL). For the same compound, the MIC (Escherichia coli [4]) was 3.84 µM (≈ 3.12 µg/mL), the MIC (Pseudomonas aeruginosa [5]) was 3.84 µM (≈ 3.12 µg/mL) and the MIC (Pseudomonas aeruginosa [6]) was 15.4 µM (≈ 12.5 µg/mL). It also gave an MIC [7] of 3.84 µM (≈ 3.12 µg/mL), an MIC (Salmonella typhi) of 30.7 µM (≈ 25 µg/mL) and an MIC (Salmonella typhimurium) of 3.84 µM (≈ 3.12 µg/mL). It also gave an MIC [8] of 15.4 µM (≈ 12.5 µg/mL), an MIC (Plesiomonas shigelloides [9]) of 15.4 µM (≈ 12.5 µg/mL) and a Ratio (Enterococcus faecalis [11]) of 19. For the same compound, the hemolysis at 1 h, 100 µM [10] was 9.75%.

`CCc1ccc(-n2cc(COC(=O)c3cn(C4CC4)c4cc(N5CCN(Cc6cn(-c7ccc(CC)cc7)nn6)CC5)c(F)cc4c3=O)nn2)cc1` showed an MIC (Staphylococcus aureus [1]) of 142 µM (≈ 100 µg/mL), an MIC [2] of 71.2 µM (≈ 50 µg/mL) and an MIC (Enterococcus faecalis [3]) of 142 µM (≈ 100 µg/mL). The MIC (Escherichia coli [4]) was > 142 µM, the MIC (Pseudomonas aeruginosa [5]) was > 142 µM and the MIC (Pseudomonas aeruginosa [6]) was > 142 µM. The MIC [7] was > 142 µM, the MIC (Salmonella typhi) was 142 µM (≈ 100 µg/mL) and the MIC (Salmonella typhimurium) was 8.91 µM (≈ 6.25 µg/mL). For the same compound, the MIC [8] was > 142 µM, the MIC (Plesiomonas shigelloides [9]) was 4.45 µM (≈ 3.12 µg/mL) and the hemolysis at 1 h, 100 µM [10] was 6.81%.

Work on `O=C(OCc1cn(-c2cccc(Cl)c2Cl)nn1)c1cn(C2CC2)c2cc(N3CCN(Cc4cn(-c5cccc(Cl)c5Cl)nn4)CC3)c(F)cc2c1=O` yielded an MIC (Staphylococcus aureus [1]) of 3.99 µM (≈ 3.13 µg/mL), an MIC [2] of 3.99 µM (≈ 3.13 µg/mL) and an MIC (Enterococcus faecalis [3]) of 15.9 µM (≈ 12.5 µg/mL). For the same compound, the MIC (Escherichia coli [4]) was 7.98 µM (≈ 6.25 µg/mL), the MIC (Pseudomonas aeruginosa [5]) was 7.98 µM (≈ 6.25 µg/mL) and the MIC (Pseudomonas aeruginosa [6]) was 15.9 µM (≈ 12.5 µg/mL). For the same compound, the MIC [7] was 31.9 µM (≈ 25 µg/mL), the MIC (Salmonella typhi) was 31.9 µM (≈ 25 µg/mL) and the MIC (Salmonella typhimurium) was 15.9 µM (≈ 12.5 µg/mL). The MIC [8] was 15.9 µM (≈ 12.5 µg/mL), the MIC (Plesiomonas shigelloides [9]) was 7.98 µM (≈ 6.25 µg/mL) and the hemolysis at 1 h, 100 µM [10] was 6.58%.

For `O=C(OCc1cn(-c2ccc(Br)cc2)nn1)c1cn(C2CC2)c2cc(N3CCN(Cc4cn(-c5ccc(Br)cc5)nn4)CC3)c(F)cc2c1=O`, the MIC (Staphylococcus aureus [1]) was 1.94 µM (≈ 1.56 µg/mL), the MIC [2] was 3.89 µM (≈ 3.13 µg/mL) and the MIC (Enterococcus faecalis [3]) was 15.6 µM (≈ 12.5 µg/mL). The MIC (Escherichia coli [4]) was 7.78 µM (≈ 6.25 µg/mL), the MIC (Pseudomonas aeruginosa [5]) was 15.6 µM (≈ 12.5 µg/mL) and the MIC (Pseudomonas aeruginosa [6]) was 15.6 µM (≈ 12.5 µg/mL). It also gave an MIC [7] of 31.1 µM (≈ 25 µg/mL), an MIC (Salmonella typhi) of 7.78 µM (≈ 6.25 µg/mL) and an MIC (Salmonella typhimurium) of 15.6 µM (≈ 12.5 µg/mL). For the same compound, the MIC [8] was 15.6 µM (≈ 12.5 µg/mL), the MIC (Plesiomonas shigelloides [9]) was 3.89 µM (≈ 3.13 µg/mL) and the hemolysis at 1 h, 100 µM [10] was 1.46%.

With `C#CCOC(=O)c1cn(C2CC2)c2cc(N3CCN(CC#C)CC3)c(F)cc2c1=O` the Ratio (Staphylococcus aureus [12]) was 5 - 10, the MIC (Staphylococcus aureus [1]) was 1.92 µM (≈ 0.782 µg/mL) and the MIC [2] was 1.92 µM (≈ 0.782 µg/mL). It also gave an MIC (Enterococcus faecalis [3]) of 30.7 µM (≈ 12.5 µg/mL), an MIC (Escherichia coli [4]) of 1.92 µM (≈ 0.782 µg/mL) and an MIC (Pseudomonas aeruginosa [5]) of 7.67 µM (≈ 3.13 µg/mL). For the same compound, the MIC (Pseudomonas aeruginosa [6]) was 15.3 µM (≈ 6.25 µg/mL), the MIC [7] was 61.4 µM (≈ 25 µg/mL) and the MIC (Salmonella typhi) was 30.7 µM (≈ 12.5 µg/mL). The MIC (Salmonella typhimurium) was 7.67 µM (≈ 3.13 µg/mL), the MIC [8] was 30.7 µM (≈ 12.5 µg/mL) and the MIC (Plesiomonas shigelloides [9]) was 1.92 µM (≈ 0.782 µg/mL). For the same compound, the Ratio [13] was 5 - 10, the Ratio (Escherichia coli [14]) was 5 - 10 and the Ratio (Plesiomonas shigelloides [15]) was 5 - 10. For the same compound, the hemolysis at 1 h, 100 µM [10] was 4.57%.

In the case of `O=C(OCc1cn(-c2ccc(Cl)cc2)nn1)c1cn(C2CC2)c2cc(N3CCN(Cc4cn(-c5ccc(Cl)cc5)nn4)CC3)c(F)cc2c1=O`, the MIC (Staphylococcus aureus [1]) is reported as 2.19 µM (≈ 1.56 µg/mL), the MIC [2] is reported as 35 µM (≈ 25 µg/mL) and the MIC (Enterococcus faecalis [3]) is reported as 2.19 µM (≈ 1.56 µg/mL). It also gave an MIC (Escherichia coli [4]) of 4.37 µM (≈ 3.12 µg/mL), an MIC (Pseudomonas aeruginosa [5]) of 4.37 µM (≈ 3.12 µg/mL) and an MIC (Pseudomonas aeruginosa [6]) of 8.75 µM (≈ 6.25 µg/mL). For the same compound, the MIC [7] was 35 µM (≈ 25 µg/mL), the MIC (Salmonella typhimurium) was 4.37 µM (≈ 3.12 µg/mL) and the MIC [8] was 35 µM (≈ 25 µg/mL). It also gave an MIC (Plesiomonas shigelloides [9]) of 8.75 µM (≈ 6.25 µg/mL) and a hemolysis at 1 h, 100 µM [10] of 4.73%.

Work on `O=C(OCc1cn(-c2ccc(Cl)cc2Cl)nn1)c1cn(C2CC2)c2cc(N3CCN(Cc4cn(-c5ccc(Cl)cc5Cl)nn4)CC3)c(F)cc2c1=O` yielded an MIC (Staphylococcus aureus [1]) of 3.99 µM (≈ 3.13 µg/mL), an MIC [2] of 3.99 µM (≈ 3.13 µg/mL) and an MIC (Enterococcus faecalis [3]) of 15.9 µM (≈ 12.5 µg/mL). The MIC (Escherichia coli [4]) was > 128 µM, the MIC (Pseudomonas aeruginosa [5]) was 15.9 µM (≈ 12.5 µg/mL) and the MIC (Pseudomonas aeruginosa [6]) was 7.98 µM (≈ 6.25 µg/mL). The MIC [7] was 7.98 µM (≈ 6.25 µg/mL), the MIC (Salmonella typhi) was 7.98 µM (≈ 6.25 µg/mL) and the MIC (Salmonella typhimurium) was 15.9 µM (≈ 12.5 µg/mL). For the same compound, the MIC [8] was 15.9 µM (≈ 12.5 µg/mL), the MIC (Plesiomonas shigelloides [9]) was 7.98 µM (≈ 6.25 µg/mL) and the hemolysis at 1 h, 100 µM [10] was 18.2%.

With `Cc1cc(C)cc(-n2cc(COC(=O)c3cn(C4CC4)c4cc(N5CCN(Cc6cn(-c7cc(C)cc(C)c7)nn6)CC5)c(F)cc4c3=O)nn2)c1` the MIC (Staphylococcus aureus [1]) was 71.2 µM (≈ 50 µg/mL), the MIC [2] was 142 µM (≈ 100 µg/mL) and the MIC (Enterococcus faecalis [3]) was > 142 µM. For the same compound, the MIC (Escherichia coli [4]) was 142 µM (≈ 100 µg/mL), the MIC (Pseudomonas aeruginosa [5]) was > 142 µM and the MIC (Pseudomonas aeruginosa [6]) was > 142 µM. For the same compound, the MIC [7] was > 142 µM, the MIC (Salmonella typhi) was > 142 µM and the MIC (Salmonella typhimurium) was > 142 µM. For the same compound, the MIC [8] was > 142 µM, the MIC (Plesiomonas shigelloides [9]) was 8.91 µM (≈ 6.25 µg/mL) and the hemolysis at 1 h, 100 µM [10] was 8.79%.
